Biological target: T1, FPRL-1 (Homo sapiens, UniProt P25090)
T1 construct: expressed in transfected cells
T1 sequence (P25090 1-351): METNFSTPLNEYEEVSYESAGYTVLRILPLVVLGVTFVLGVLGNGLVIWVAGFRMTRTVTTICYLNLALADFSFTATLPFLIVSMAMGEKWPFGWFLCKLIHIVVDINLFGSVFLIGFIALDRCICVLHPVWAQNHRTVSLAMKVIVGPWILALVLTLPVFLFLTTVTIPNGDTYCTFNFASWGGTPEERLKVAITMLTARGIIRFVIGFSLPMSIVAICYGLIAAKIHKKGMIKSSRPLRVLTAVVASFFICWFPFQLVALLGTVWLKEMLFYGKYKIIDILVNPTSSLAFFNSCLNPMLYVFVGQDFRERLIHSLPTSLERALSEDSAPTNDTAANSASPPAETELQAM
Assay: compound-induced calcium activity on FLIPR Tetra in CHO-Ga16 cells stably expressing FPRL1
Format: cell-based
Details: for FPRL-1 Ga16-CHO (eff): efficacy value in brackets under EC50; for EC50: tested at 0.61 to 10,000 nM
Procedure: CHO-Ga16 cells stably expressing FPRL1 were cultured in (F12, 10% FBS, 1% PSA, 400 μg/ml geneticin and 50 μg/ml hygromycin) and HEK-Gqi5 cells stable expressing FPR1 were cultured in (DMEM high glucose, 10% FBS, 1% PSA, 400 μg/ml geneticin and 50 μg/ml hygromycin). In general, the day before the experiment, 18,000 cells/well were plated in a 384-well clear bottom poly-d-lysine coated plate. The following day the screening compound-induced calcium activity was assayed on the FLIPR^Tetra. The drug plates were prepared in 384-well microplates using the EP3 and the MultiPROBE robotic liquid handling systems. Compounds were tested at concentrations ranging from 0.61 to 10,000 nM. Results are expressed as EC50 (nM) and efficacy values.

Compound: CSc1ccc(NC(=O)Nc2ccc3c(c2)C(=O)N(CCCN)[C@H](c2ccc(C#N)cc2)C3)cc1 [Compound 10, (S)-1-[2-(3-aminopropyl)-3-(4-cyanophenyl)-1-oxo-1,2,3,4-tetrahydroisoquinolin-7-yl]-3-[4-(methylthio)phenyl]urea]
- FPRL-1 Ga16-CHO (eff): (1.0)
- EC50: 299 nM

Compound: CSc1ccc(NC(=O)Nc2ccc3c(c2)C(=O)N(CCc2c[nH]cn2)C(c2ccc(Cl)cn2)C3)cc1 (stereo not drawn) [Compound 28, 1-{3-(5-chloropyridin-2-yl)-2-[2-(1H-imidazol-4-yl)ethyl]-1-oxo-1,2,3,4-tetrahydroisoquinolin-7-yl}-3-[4-(methylthio)phenyl]urea]
- FPRL-1 Ga16-CHO (eff): (0.91)
- EC50: 13.5 nM

Compound: CS(=O)(=O)c1ccc(NC(=O)Nc2ccc3c(c2)C(=O)N(CCCN)[C@@H](c2ccc(C#N)cc2)C3)cc1 [Compound 15, (R)-1-[2-(3-aminopropyl)-3-(4-cyanophenyl)-1-oxo-1,2,3,4-tetrahydroisoquinolin-7-yl]-3-[4-(methylsulfonyl)phenyl]urea]
- FPRL-1 Ga16-CHO (eff): (0.90)
- EC50: 29 nM

Compound: C[S+]([O-])c1ccc(NC(=O)Nc2ccc3c(c2)C(=O)N(CCCN)C(c2ccc(C#N)cc2)C3)cc1 (stereo not drawn) [Compound 7, 1-[2-(3-aminopropyl)-3-(4-cyanophenyl)-1-oxo-1,2,3,4-tetrahydroisoquinolin-7-yl]-3-[4-(methylsulfinyl)phenyl]urea]
- FPRL-1 Ga16-CHO (eff): (0.92)

Compound: CC(=O)c1ccc(NC(=O)Nc2ccc3c(c2)C(=O)N(CCc2c[nH]cn2)C(c2ccc(C#N)cc2)C3)cc1 (stereo not drawn) [Compound 18, 1-(4-acetylphenyl)-3-{3-(4-cyanophenyl)-2-[2-(1H-imidazol-4-yl)ethyl]-1-oxo-1,2,3,4-tetrahydroisoquinolin-7-yl}urea]
- FPRL-1 Ga16-CHO (eff): (0.80)
- EC50: 11 nM

Compound: CS(=O)(=O)c1ccc(NC(=O)Nc2ccc3c(c2)C(=O)N(CCCN)[C@H](c2ccc(C#N)cc2)C3)cc1 [Compound 14, (S)-1-[2-(3-aminopropyl)-3-(4-cyanophenyl)-1-oxo-1,2,3,4-tetrahydroisoquinolin-7-yl]-3-[4-(methylsulfonyl)phenyl]urea]
- FPRL-1 Ga16-CHO (eff): (1.3)

Compound: CS(=O)(=O)c1ccc(NC(=O)Nc2ccc3c(c2)C(=O)N(CCCN)C(c2ccc(C#N)cc2)C3)cc1 (stereo not drawn) [Compound 8, 1-[2-(3-aminopropyl)-3-(4-cyanophenyl)-1-oxo-1,2,3,4-tetrahydroisoquinolin-7-yl]-3-[4-(methylsulfonyl)phenyl]urea]
- FPRL-1 Ga16-CHO (eff): (0.86)
- EC50: 10 nM

Compound: CS(=O)(=O)c1ccc(NC(=O)Nc2ccc3c(c2)C(=O)N(CCc2c[nH]cn2)C(c2ccc(F)cn2)C3)cc1 (stereo not drawn) [Compound 32, 1-{3-(5-fluoropyridin-2-yl)-2-[2-(1H-imidazol-4-yl)ethyl]-1-oxo-1,2,3,4-tetrahydroisoquinolin-7-yl}-3-[4-(methylsulfonyl)phenyl]urea]
- FPRL-1 Ga16-CHO (eff): (1.0)
- EC50: 10.5 nM

Compound: CC1Cc2ccc(NC(=O)Nc3ccc(S(C)(=O)=O)cc3)cc2C(=O)N1CCCN (stereo not drawn) [Compound 17, 1-[2-(3-aminopropyl)-3-methyl-1-oxo-1,2,3,4-tetrahydroisoquinolin-7-yl]-3-[4-(methylsulfonyl)phenyl]urea]
- FPRL-1 Ga16-CHO (eff): (88)
- EC50: 150 nM

Compound: C[S+]([O-])c1ccc(NC(=O)Nc2ccc3c(c2)C(=O)N(CCc2c[nH]cn2)C(c2ccc(F)cn2)C3)cc1 (stereo not drawn) [Compound 31, 1-{3-(5-fluoropyridin-2-yl)-2-[2-(1H-imidazol-4-yl)ethyl]-1-oxo-1,2,3,4-tetrahydroisoquinolin-7-yl}-3-[4-(methylsulfinyl)phenyl]urea]
- FPRL-1 Ga16-CHO (eff): (0.93)
- EC50: 11.8 nM

Source: patent publication US8809367B2, “1-1-Oxo-1,2,3,4-tetrahydroisoquinolin-7-yl)urea derivatives as N-formyl peptide receptor like-1 (FPRL-1) receptor modulators” (Allergan, Inc., priority 2011, dated 2014)
